Laboratory results: patent US20250325531A1, “TREATMENT OF SYSTOLIC DYSFUNCTION” (MyoKardia, Inc., priority 2024, published 2025)

Experiment: Single ascending oral dose pharmacokinetics in healthy volunteers (plasma and urine, LC MS/MS)
Format: in vivo, human
Settings: for dose recovered in urine: 0-48 hours urine
Text: This example describes the first-in-human study of Compound I. Based on its mechanism of action, Compound I may offer a targeted therapy for patients with DCM caused by genetic or nongenetic mechanisms. The study was a randomized, double-blind, placebo-controlled, sequential group, single-ascending (oral) dose study in healthy subjects aged 18-55 years. Eight dosing cohorts, each comprising eight healthy subjects, were enrolled. Within each cohort, subjects were randomized 6:2 to Compound I: placebo.
Subjects were resident at the clinical site for up to 5 days and 4 nights, from Day-1 (the day before dosing) to Day 4, and received a single dose of Compound I or placebo on Day 1. ECG telemetry was initiated 1 hour predose and continued through 48 hours postdose (Day 3). Any subject with a predose resting HR ≥80 beats per minute was considered ineligible and not treated. […] Subjects returned for a safety follow-up visit 7 days (+1 day) after dosing.
All randomized study subjects received either Compound I or matching placebo as a single oral dose after a fasting period of at least 6 hours. Compound I drug substance is a crystalline, free-base, synthetic molecule with a molecular weight of 435.4 g/mol.
Compound I was provided as a powder for oral suspension. Placebo was provided as calcium carbonate powder. Both treatments were dosed orally as a suspension. The suspension was made using Ora-Plus® suspending vehicle (Perrigo) and a cherry syrup flavoring vehicle (Humco), mixed 50% to 50%. The suspension was followed by approximately 100 mL water. The suspension was made up within 14 days from the time in which it was dosed which was consistent with the stability data on the suspension. The suspension was made up so the volume administered to the subjects who received Compound I was the same at 20 mL.
Each subject received a dose according to the cohort in which they were enrolled. Cohorts were enrolled sequentially, with each cohort receiving an escalated dose of Compound I. The doses administered were 3 mg, 10 mg, 25 mg, 50 mg, 100 mg, 175 mg, 350 mg, and 525 mg, respectively.
The concentrations of Compound I in human plasma and urine were quantitated by high performance liquid chromatography with tandem mass spectrometric detection (LC MS/MS) (Biological sample analysis study report Alturas AD17-726). Plasma samples were extracted by protein precipitation with acetonitrile containing internal standard MYK-5654. The calibration curves were linear over concentration range of 0.500 to 1000 ng/mL with a lower limit of quantification (LLOQ) of 0.500 ng/mL.
The PK Population included all subjects who received Compound I. Blood samples were collected for PK assessments. The actual timing of the samples may have been modified and/or up to an additional 2 samples may have been requested by the SRC after review of the data from previous cohorts. It was important that PK sampling occurred as closely as possible to the scheduled time (+10%). Both blood and urine samples were used for PK assessments.
In addition, for subjects who received placebo, a single plasma sample near the predicted tmax of Compound I was evaluated to confirm the lack of circulating Compound I. Plasma concentration data for Compound I was summarized using descriptive statistics, including mean, standard deviation (SD), median, minimum, and maximum values, and percent coefficient of variation. Other PK parameters included (but were not limited to) Cmax, tmax, AUC, t1/2, and MRT. Additionally, the apparent terminal-phase terminal half-life was calculated. The dose proportionality of AUC and Cmax was explored.

For `Cn1cc(S(=O)(=O)[C@@](C)(F)C2CCN(C(=O)Nc3ccon3)CC2)c(C(F)F)n1` [Compound I, (R)-4-(1-((3-(difluoromethyl)-1-methyl-1H-pyrazol-4-yl)sulfonyl)-1-fluoroethyl)-N-(isoxazol-3-yl) piperidine-1-carboxamide], the “dose recovered in urine” value (350 mg) was “approximately 6.0%”, the “dose recovered in urine” value (525 mg) was ~8.6% and the “AUC0-48 Geometric Mean” value (3 mg) was 676.32 ng·h/mL. The “AUC0-last Median” value (3 mg) was 713.41 ng·h/mL, the “AUC0-∞ Geometric Mean” value (3 mg) was 722.23 ng·h/mL and the “CL/F Geometric Mean” value (3 mg) was 4.15 L/h. The “CL/F Mean” value (3 mg) was 4.26 L/h, the “CL/F Median” value (3 mg) was 4.22 L/h and the “Extrapolation Geometric Mean” value (3 mg) was 2.71%. The “Extrapolation Mean” value (3 mg) was 2.78%, the “Extrapolation Median” value (3 mg) was 2.82% and the “Half-Life Lambda Z Geometric Mean” value (3 mg) was 11.10 h. The “CL/F Geometric Mean” value (10 mg) was 2.99 L/h, the “CL/F Mean” value (10 mg) was 3.06 L/h and the “CL/F Median” value (10 mg) was 2.88 L/h. The “Cmax Mean” value (10 mg) was 139.17 ng/mL, the “Extrapolation Geometric Mean” value (10 mg) was 1.59% and the “Extrapolation Mean” value (10 mg) was 1.90%. For the same molecule, the “Extrapolation Median” value (10 mg) was 2.24%, the “Half-Life Lambda Z Mean” value (10 mg) was 13.36 h and the “Mean Residence Time Geometric Mean” value (10 mg) was 21.06 h. The “Tmax Geometric Mean” value (10 mg) was 4.80 h, the “Tmax Mean” value (10 mg) was 4.85 h and the “AUC0-last Geometric Mean” value (25 mg) was 6924.51 ng·h/mL. The “AUC0-last Mean” value (25 mg) was 7161.62 ng·h/mL, the “CL/F Geometric Mean” value (25 mg) was 3.55 L/h and the “CL/F Mean” value (25 mg) was 3.69 L/h. For the same molecule, the “CL/F Median” value (25 mg) was 3.32 L/h, the “Extrapolation Geometric Mean” value (25 mg) was 1.45% and the “Extrapolation Mean” value (25 mg) was 1.72%. For the same molecule, the “Extrapolation Median” value (25 mg) was 1.92%, the “Half-Life Lambda Z Geometric Mean” value (25 mg) was 13.14 h and the “Half-Life Lambda Z Mean” value (25 mg) was 13.28 h. The “Mean Residence Time Geometric Mean” value (25 mg) was 20.60 h, the “Mean Residence Time Median” value (25 mg) was 20.07 h and the “Tmax Geometric Mean” value (25 mg) was 4.64 h. The “Tmax Mean” value (25 mg) was 4.67 h, the “AUC0-last Geometric Mean” value (50 mg) was 11075.03 ng·h/mL and the “AUC0-last Median” value (50 mg) was 11185.34 ng·h/mL. The “AUC0-∞ Geometric Mean” value (50 mg) was 11177.07 ng·h/mL, the “AUC0-∞ Median” value (50 mg) was 11204.30 ng·h/mL and the “CL/F Geometric Mean” value (50 mg) was 4.47 L/h. For the same molecule, the “CL/F Mean” value (50 mg) was 4.53 L/h, the “CL/F Median” value (50 mg) was 4.46 L/h and the “Extrapolation Geometric Mean” value (50 mg) was 0.46%. For the same molecule, the “Extrapolation Mean” value (50 mg) was 0.91%, the “Extrapolation Median” value (50 mg) was 0.46% and the “Mean Residence Time Geometric Mean” value (50 mg) was 20.79 h. For the same molecule, the “Mean Residence Time Mean” value (50 mg) was 20.98 h, the “Tmax Geometric Mean” value (50 mg) was 4.66 h and the “Tmax Mean” value (50 mg) was 4.69 h. The “AUC0-48 Median” value (100 mg) was 21561.98 ng·h/mL, the “AUC0-last Geometric Mean” value (100 mg) was 21734.19 ng·h/mL and the “AUC0-last Median” value (100 mg) was 22401.00 ng·h/mL. The “CL/F Geometric Mean” value (100 mg) was 4.69 L/h, the “CL/F Mean” value (100 mg) was 4.76 L/h and the “CL/F Median” value (100 mg) was 5.33 L/h. The “Extrapolation Geometric Mean” value (100 mg) was 0.36%, the “Extrapolation Mean” value (100 mg) was 5.48% and the “Extrapolation Median” value (100 mg) was 0.14%. The “Half-Life Lambda Z Geometric Mean” value (100 mg) was 11.08 h, the “Tmax Mean” value (100 mg) was 4.50 h and the “AUC0-48 Median” value (175 mg) was 32704.35 ng·h/mL. The “AUC0-last Geometric Mean” value (175 mg) was 38235.62 ng·h/mL, the “CL/F Geometric Mean” value (175 mg) was 4.57 L/h and the “CL/F Mean” value (175 mg) was 4.66 L/h. The “CL/F Median” value (175 mg) was 4.45 L/h, the “Cmax Geometric Mean” value (175 mg) was 1301.37 ng/mL and the “Cmax Mean” value (175 mg) was 1316.17 ng/mL. The “Extrapolation Geometric Mean” value (175 mg) was 0.14%, the “Extrapolation Mean” value (175 mg) was 0.17% and the “Extrapolation Median” value (175 mg) was 0.16%. The “Half-Life Lambda Z Mean” value (175 mg) was 15.83 h, the “Mean Residence Time Geometric Mean” value (175 mg) was 24.44 h and the “Mean Residence Time Median” value (175 mg) was 24.43 h. The “Tmax Geometric Mean” value (175 mg) was 5.07 h, the “Tmax Mean” value (175 mg) was 5.11 h and the “AUC0-24 Geometric Mean” value (350 mg) was 44703.88 ng·h/mL. The “AUC0-48 Median” value (350 mg) was 66430.88 ng·h/mL, the “AUC0-last Geometric Mean” value (350 mg) was 73185.05 ng·h/mL and the “AUC0-last Median” value (350 mg) was 76161.9 ng·h/mL. The “AUC0-∞ Geometric Mean” value (350 mg) was 73626.42 ng·h/mL, the “AUC0-∞ Median” value (350 mg) was 76241.22 ng·h/mL and the “CL/F Geometric Mean” value (350 mg) was 4.75 L/h. For the same molecule, the “CL/F Mean” value (350 mg) was 4.95 L/h, the “CL/F Median” value (350 mg) was 4.75 L/h and the “Extrapolation Geometric Mean” value (350 mg) was 0.37%. The “Extrapolation Mean” value (350 mg) was 0.60%, the “Extrapolation Median” value (350 mg) was 0.43% and the “Half-Life Lambda Z Mean” value (350 mg) was 14.66 h. For the same molecule, the “Mean Residence Time Median” value (350 mg) was 22.73 h, the “Tmax Geometric Mean” value (350 mg) was 4.84 h and the “Tmax Mean” value (350 mg) was 4.95 h. For the same molecule, the “AUC0-24 Median” value (350 mg + 525 mg) was 38537.03 ng·h/mL, the “AUC0-∞ Mean” value (350 mg + 525 mg) was 74358.88 ng·h/mL and the “CL/F Geometric Mean” value (350 mg + 525 mg) was 6.04 L/h. For the same molecule, the “CL/F Mean” value (350 mg + 525 mg) was 6.51 L/h, the “CL/F Median” value (350 mg + 525 mg) was 6.10 L/h and the “Extrapolation Geometric Mean” value (350 mg + 525 mg) was 0.29%. The “Extrapolation Mean” value (350 mg + 525 mg) was 0.59%, the “Extrapolation Median” value (350 mg + 525 mg) was 0.32% and the “Half-Life Lambda Z Geometric Mean” value (350 mg + 525 mg) was 14.51 h. The “Mean Residence Time Mean” value (350 mg + 525 mg) was 24.28 h, the “Tmax Geometric Mean” value (350 mg + 525 mg) was 4.89 h and the “Tmax Mean” value (350 mg + 525 mg) was 4.96 h. The “AUC0-24 Median” value (525 mg) was 38212.84 ng·h/mL, the “AUC0-48 Geometric Mean” value (525 mg) was 56964.59 ng·h/mL and the “AUC0-last Geometric Mean” value (525 mg) was 68111.84 ng·h/mL. The “AUC0-∞ Geometric Mean” value (525 mg) was 68514.68 ng·h/mL, the “CL/F Geometric Mean” value (525 mg) was 7.66 L/h and the “CL/F Mean” value (525 mg) was 8.07 L/h. For the same molecule, the “CL/F Median” value (525 mg) was 7.64 L/h, the “Cmax Geometric Mean” value (525 mg) was 2294.46 ng/mL and the “Cmax Mean” value (525 mg) was 2350.00 ng/mL. For the same molecule, the “Extrapolation Geometric Mean” value (525 mg) was 0.22%, the “Extrapolation Mean” value (525 mg) was 0.59% and the “Extrapolation Median” value (525 mg) was 0.23%. The “Half-Life Lambda Z Geometric Mean” value (525 mg) was 14.70 h, the “Half-Life Lambda Z Median” value (525 mg) was 13.77 h and the “Tmax Geometric Mean” value (525 mg) was 4.94 h. The “Tmax Mean” value (525 mg) was 4.97 h and the “dose proportionality slope (power model)” value (all doses, 95% CI 0.8358-0.9417) was 0.8888.
